Experimental data: patent US20200222531A1, “METHODS OF POPULATING PRECIPITATED PARTICLES OF A MODIFIED OR SYNTHESIZED SUBSTANCE IN A TISSUE” (priority 2010, published 2020)

Experiment: Solubility of urushiol in 95% ethanol and in water
Format: physicochemical
Description: The poison ivy allergen, urushiol, is soluble in 95% ethanol but insoluble in water. Intramuscular injection of urushiol in small volumes of 95% ethanol results in precipitation of large numbers of small insoluble particles as the ethanol is rapidly diluted by interstitial or tissue fluid, resulting in a […] enhancement of tolerogenesis per mg administered urushiol. As the most practical way to make an Ara h2 vaccine with the solubility properties needed to exploit the benefit of this delivery system may be a derivative of a process already known to enhance tolerogenesis, the inventors have the opportunity to see if the synergistic application of two methods of tolerogenesis enhancement yields a sufficiently high ratio of tolerogenicity to allergenicity to constitute a predictably safe and effective treatment for peanut allergy.

**Q.** For urushiol, which “solubility in 95% ethanol” value (95% ethanol) is on record?
**A.** soluble

**Q.** What about the solubility in water (water) of the same substance?
**A.** insoluble
